How the values were obtained:
[1] = system: VCR resistant murine leukemia (P388/VCR) cells; assay: In vivo test: overcoming resistance to vincristine in VCR resistant murine leukemia cell bearing mice; set-up: species or system CDF1 male mice; conditions: P388/VCR bearing CDF1 mice, VCR 100 µg/kg alone or with compound 100 mg/kg, intraperitoneally for 5 days; for Effect of overcoming resistance T/V (%): T/C of combination over T/C of VCR alone x 100; for Rate of prolongation of life T/C (%): with respect to controls
Method: 10^6 VCR resistant murine leukemia (P388/VCR) cells were transplanted intraperitoneally into groups of six CDF1 male mice, then the compound of the present invention (100 mg/kg) and VCR (100 µg/kg) were administered intraperitoneally for 5 days. […] Effect of overcoming resistance to anti-cancer drug (T/V) % = [(Rate of prolongation of life using VCR and present compound (T/C))/(Rate of prolongation of life using VCR alone (T/C))] x 100 [formula]

[2] = Acute toxicity test; conditions: mouse, in vivo, ip; ddY male mice, intraperitoneally, suspended in 0.5% CMC-Na with 0.1% Tween 80, observed up until 7 days
Method: • Animals used: ddY male mice (SLC Japan), 4-5 weeks old, three to five mice per group. • Test method: The compound of the present invention was suspended in 0.5% sodium carboxymethylcellulose (CMC-Na) containing 0.1% Tween 80. It was administered to the mice intraperitoneally in amounts from 1000 mg/kg to 250 mg/kg in groups of three to five mice until no more deaths were observed. The survival of the animals was observed up until 7 days after administration.

[3] = system: VJ-300 cells; assay: In vitro test of action suppressing proliferation of cancer cells, combined administration of doxorubicin (colony formation), resistant cells; format: cell-based, Human; conditions: ADM alone or ADM + test compound 1 µg/ml, LD50 of ADM relative to ADM alone in KB cells = 1, 7 days incubation, colony count
Method: Human rhinopharynx cancer derived KB cells (i.e., sensitive cells) and their multi-drug resistant clone VJ-300 cells (i.e., resistant cells) were used as the test cells. As the incubation solutions, use was made of 10% fetal calf serum (Flow Laboratories) and Eagle MEM medium (Nissui Seiyaku) containing 0.292 mg/ml of L-glutamine (Flow Laboratories). The tests of the action for overcoming resistance to anti-cancer drugs or action for increasing the effect of the anti-cancer drug with the combined administration of the anti-cancer drug doxorubicin (i.e., adriamycin, ADM) and the test compound were performed as follows:
The test cells were suspended in incubation solutions and adjusted to a cell density of about 200 cells/ml. The cell suspensions were injected in 2 ml amounts into petri dishes and were incubated in a CO2 gas incubator (5% CO2, 95% air) at 37°C for 24 hours. Then, 5 µl of a predetermined concentration of the aqueous ADM solution and a predetermined concentration of a DMSO solution of the test compound were added, then the incubation was continued for a further 7 days. After the end of the incubation, the result was immobilized with methanol, Giemsa stained and measured for the number of colonies per dish. The results were used to prepare a volume-reaction curve. […] The results are shown in Table 8 to Table 10 using the concentration of LD50 of ADM in the ADM alone group by KB cells as the resistance degree 1 and calculating the resistances of the following LD50 concentrations as relative ratios. […]

Compound	Average days of survival [1]	Effect of overcoming resistance T/V (%) [1] [%]	Rate of prolongation of life T/C (%) [1] [%]	LD50 at 168 h [2] [mg/kg]	Degree of resistance for ADM VJ-300 [3]
CCOC(=O)C1=C(c2ccc(-n3c(C)nc4ncccc43)cc2)NC(C)=C(C(=O)OCCCc2cccnc2)C1C(C)C (centres unmarked) [Compound 1, 4-isopropyl-6-methyl-2-[4-(2-methylimidazo[4,5-b]pyridin-1-yl)phenyl]-1,4-dihydropyridin-3,5-dicarboxylate 3-ethylester, 5-[3-(3-pyridyl)propyl]ester]	12.8	113	108	> 1000	2.4
CCCCCC1C(C(=O)OCCCc2cccnc2)=C(C)NC(c2cccnc2)=C1C(=O)OCC (centres unmarked) [Compound 16, 6-methyl-4-pentyl-2-(3-pyridyl)-1,4-dihydropyridin-3,5-dicarboxylate 3-ethylester, 5-[3-(3-pyridyl)propyl]ester]	16.2	143	137	> 1000	3.0
CCCCCC1C(C(=O)OC/C=C/c2cccnc2)=C(C)NC(c2ccc(-n3c(C)nc4cnccc43)cc2)=C1C(=O)OCC (centres unmarked) [Compound 23, 6-methyl-2-[4-(2-methylimidazo[4,5-c]pyridin-1-yl)phenyl]-4-pentyl-1,4-dihydropyridin-3,5-dicarboxylate 3-ethylester, 5-[(E)-3-(3-pyridyl)-2-propenyl]ester]	13.5	138	142	> 1000	1.2
CCOC(=O)C1=C(c2ccc(-n3c(C)nc4cnccc43)cc2)NC(C)=C(C(=O)OC/C=C/c2cccnc2)C1CCc1ccccc1 (centres unmarked) [Compound 24, 6-methyl-2-[4-(2-methylimidazo[4,5-c]pyridin-1-yl)phenyl]-4-(2-phenyl)ethyl-1,4-dihydropyridin-3,5-dicarboxylate 3-ethylester, 5-[(E)-3-(3-pyridyl)-2-propenyl]ester]	13.3	136	140	> 1000	1.1
CCOC(=O)C1=C(c2ccc(-n3ccnc3)cc2)NC(C)=C(C(=O)OC/C=C/c2cccnc2)C1/C=C/c1ccccc1 (centres unmarked) [Compound 33, 2-[4-(1-imidazolyl)phenyl]-6-methyl-4-[(E)-2-phenylethenyl]-1,4-dihydropyridin-3,5-dicarboxylate 3-ethylester, 5-[(E)-3-(3-pyridyl)-2-propenyl)ester]	–	–	–	> 1000	1.4
CCOC(=O)C1=C(c2ccc(-n3ccnc3)cc2)NC(C)=C(C(=O)OCCCc2cccnc2)C1/C=C/c1ccccc1 (centres unmarked) [Compound 43, 2-[4-(1-imidazolyl)phenyl]-6-methyl-4-[(E)-2-phenylethenyl]-1,4-dihydropyridin-3,5-dicarboxylate 3-ethylester, 5-[3-(3-pyridyl)propyl]ester]	13.4	137	141	–	1.4
